{"source": "patent US20260053778A1", "about": "“USE OF NOVEL PPAR ACTIVITY MODULATOR FOR PREVENTION, AMELIORATION OR TREATMENT OF DEGENERATIVE BRAIN DISEASES” (POSTECH RESEARCH AND BUSINESS DEVELOPMENT FOUNDATION, priority 2022, published 2026)", "key": {"[1]": {"target": "T1, HIS-tagged recombinant PPAR β/δ protein (Homo sapiens, UniProt Q03181)", "T1 sequence (Q03181 211-439 limits assumed)": "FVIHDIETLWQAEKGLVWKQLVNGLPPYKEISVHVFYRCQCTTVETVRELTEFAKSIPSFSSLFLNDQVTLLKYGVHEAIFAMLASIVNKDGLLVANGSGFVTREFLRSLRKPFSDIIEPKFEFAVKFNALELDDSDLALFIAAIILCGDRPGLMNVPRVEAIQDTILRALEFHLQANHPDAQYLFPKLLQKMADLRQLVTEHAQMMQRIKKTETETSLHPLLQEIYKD", "assay": "CNBr-drug and protein binding experiment, PPARβ/δ", "settings": "Western blotting after 24 h incubation", "description": "Since the computer prediction program predicted that DTMB binds to PPAR transcription factors, CNBr-drug and protein binding experiments were conducted to confirm whether DTMB actually binds to PPAR. To determine the actual degree of drug-protein binding, the reaction of the protein of the PPAR-α, β/δ, γ ligand-binding portion with the DTMB drug-bound CNBr beads was confirmed through Western blotting.\nSpecifically, CNBr Sepharose 4B beads were prepared and activated according to the instructions. 100 mg of CNBr-activated Sepharose 4B beads were incubated with drugs or DMSO at 4° C. for 18 h. The drug-bound beads reacted with HIS-tagged recombinant PPAR α, β/δ, and γ proteins. After 24 h of incubation, Western blotting experiments were performed to confirm whether the recombinant proteins bound to the drug-bound beads."}, "[2]": {"tested_on": "primary microglia isolated from mouse", "assay": "Cytokine ELISA in primary microglia", "assay_type": "cell-based", "settings": "primary microglia treated with LPS or Aβ aggregates, DTMB 24 h", "description": "To confirm a more clear anti-inflammatory effect, the microglia cell line (BV2) and microglia isolated from mice were treated with lipopolysaccharide (LPS) and Aβ aggregates to induce an inflammatory response, and then DTMB was treated to measure the decrease in cytokine levels in microglia by DTMB treatment using ELISA.\nPrimary microglial culture was performed as described in the literature [Lian H, Roy E, Zheng H. Protocol for primary microglial culture preparation. Bio-protocol. 2016; 6(21)]. Postnatal day 3 mice were used for primary microglial cell preparation. Newborn mouse pups were anesthetized on ice and then sacrificed. The isolated cortex and hippocampus were collected after removing the meninges. The brain tissues were dissociated by incubation with trypsin (2.5%) in HBSS (Gibco, Gaithersburg, MD, USA) for 15 min. The cell homogenate was then cultured in M-CSF (20 ng/mL, R&D Systems) supplemented with DMEM-F12 medium containing 10% fetal bovine serum, 10% horse serum, 1% GlutaMAX (Gibco, MD, USA), and 1% penicillin/streptomycin (Welgene, Korea). After 10 days, microglia were purified by shaking at 260 rpm for 2 h.\nCytokine levels (TNF-α, IL-1β, and IL-6) were measured in the media of BV2 microglia and primary microglia treated with LPS (1 μg/mL) and human Aβ1-42 (5 μg/mL). […]"}, "[3]": {"tested_on": "5×FAD Alzheimer's dementia-induced mice", "assay": "Y maze test in 5×FAD mice", "assay_type": "in vivo, mouse", "settings": "DTMB 10 mg/kg orally, 12 weeks", "description": "5×FAD (Tg6799) mice were purchased from Jackson Laboratory (Bar Harbor, ME, USA), and male transgenic mice were mated with B6/SJL hybrid female mice. Genotyping was performed by PCR analysis of tail-cut samples. In this example, 8-week-old female mice were used for drug administration, and wild-type littermates were used as controls. All procedures related to animal behavior experiments were approved by the Institutional Animal Care and Use Committee of Pohang University of Science and Technology (POSTECH IACUC). All animal experiments were performed in accordance with the principles of the Animal Welfare Act, the PHS Animal Welfare Policy, and the NIH Guide for the Care and Use of Laboratory Animals. All mice were maintained under general conditions in the POSTECH animal facility according to institutional guidelines.\nTo evaluate the effect of DTMB on 5×FAD mice, DTMB (10 mg/kg) and vehicle (1% carboxymethylcellulose and 10% DMSO) were orally administered to four groups (wild type, wild type+DTMB, 5×FAD, and 5×FAD+DTMB) 6 days per week for 3 months.\nThe measuring device consists of three branches, each of which is 42 cm long, 3 cm wide, and 12 cm high, and the angle at which the three branches folded is 120°. […] Alternation behavior is defined as entering all three branches without overlapping and was calculated using the following mathematical formula."}}}
{"smiles": "COc1ccc(-c2cc(=O)oc3c(C)c(OC(=O)[C@H](Cc4c[nH]c5ccccc45)NC(=O)OC(C)(C)C)ccc23)cc1", "note": "[DTMB, [4-(4-Methoxyphenyl)-8-methyl-2-oxochromen-7-yl](2S)-3-(1H-indol-3-yl)-2-[(2-methylpropan-2-yl)oxycarbonylamino]propanoate]", "values": [{"measurement": "Binding of PPARβ/δ ligand-binding protein to drug-bound CNBr beads", "setting": "[1]", "result": "binds to all subtypes of PPAR"}, {"measurement": "Level of IL-6", "setting": "[2]", "result": "statistically significantly reduced"}, {"measurement": "Level of TNF-α", "setting": "[2]", "result": "statistically significantly reduced"}, {"measurement": "Alternation behavior (Y maze)", "setting": "[3]", "result": "increased statistically significantly"}]}
